# Reference: patent publication US20220098160A1, “NOVEL CDK 8/19 INHIBITORS” (BIOCAD, priority 2018, published 2022)
# Where a name gives a salt, the structure may show the parent alone.
# How the values were obtained:
# CDK8/CyclinC = target: T1, CDK8/CyclinC (Homo sapiens, UniProt P49336); experiment: LanthaScreen TR-FRET binding to recombinant CDK8 in complex with Cyclin C; details: CDK8/CyclinC 5 nM, Tracer 236 10 nm, average of several runs; read-out: CDK8-CycC IC50
# T1 construct: purchased ThermoFisher PR7261B
# T1 sequence (P49336 whole entry): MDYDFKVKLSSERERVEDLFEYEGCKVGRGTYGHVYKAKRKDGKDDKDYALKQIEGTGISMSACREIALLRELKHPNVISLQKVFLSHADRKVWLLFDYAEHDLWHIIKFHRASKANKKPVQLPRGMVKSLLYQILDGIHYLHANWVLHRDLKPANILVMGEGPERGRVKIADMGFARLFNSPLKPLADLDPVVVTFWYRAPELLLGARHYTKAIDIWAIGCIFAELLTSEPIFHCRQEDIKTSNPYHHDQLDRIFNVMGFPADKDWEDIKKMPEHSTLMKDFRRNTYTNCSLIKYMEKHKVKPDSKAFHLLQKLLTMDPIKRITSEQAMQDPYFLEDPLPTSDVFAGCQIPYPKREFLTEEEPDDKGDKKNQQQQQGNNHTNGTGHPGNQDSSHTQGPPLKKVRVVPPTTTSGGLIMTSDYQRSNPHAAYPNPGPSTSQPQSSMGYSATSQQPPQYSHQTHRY
# T1 sequence (P24863 whole entry partner): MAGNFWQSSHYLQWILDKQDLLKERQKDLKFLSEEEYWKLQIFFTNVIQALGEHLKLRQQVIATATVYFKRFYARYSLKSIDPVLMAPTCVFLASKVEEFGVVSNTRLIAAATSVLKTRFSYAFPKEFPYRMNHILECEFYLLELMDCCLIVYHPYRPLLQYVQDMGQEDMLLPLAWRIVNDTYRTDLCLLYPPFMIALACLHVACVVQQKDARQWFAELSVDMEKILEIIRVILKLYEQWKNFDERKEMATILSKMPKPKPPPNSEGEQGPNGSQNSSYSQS
# Experimental: The ability of the compounds described herein to bind to the CDK8 protein was determined using the LanthaScreen method (ThermoFisher).
# The measurements were conducted in a reaction volume (15 μl) using a 384-well plate (Corning, #CLS4513). CDK8/CyclinC enzyme (ThermoFisher, #PR7261B) was mixed with Anti-His-tag-Biotin antibodies (ThermoFisher, #PV6090), Streptavidin-Eu (ThermoFisher, #PV6025), and the resulting mixture was added to the wells of the plate in the amount of 5 μl per well. The final concentrations of the substances were as follows: CDK8/CyclinC—5 nM, Streptavidin-Eu—3 nM, Anti-His-tag-Biotin—3 nM. Staurosporine was used as a control inhibitor, and a 0.1% solution of dimethyl sulfoxide (DMSO) in the reaction buffer containing 250 mM HEPES (pH 7.5), 50 mM MgCl2, 5 mM EGTA, and 0.05% Brij-35 was used as a blank.
# Tested inhibitors and controls were added to the corresponding wells in the amount of 5 μl per well. The plate was incubated at room temperature for 20 minutes. […] The final concentration of the tracer was 10 nm. A reaction buffer was used as a negative control instead of the tracer solution. The plate was incubated for 40 minutes at 25° C. Then the TR-FRET signal was measured on a SPARK20 plate reader (Tesap, Switzerland) according to the manufacturer's recommendations, and converted to the amount of kinase-bound tracer. The IC50 value was determined using the SparkControl Magellan 1.2 program (Tesap, Switzerland) by approximating the experimental points using a four-parameter model with the Levenberg-Marquardt optimization (Table 11).
# [1] = Permeability through a monolayer of Caco-2 cells; assay type: in vitro ADME; details: human; for Papp A→B at 2 h, 10 μM: pH 6.5 upper / pH 7.4 lower chamber, 2 h at 37° C.; for efflux ratio at 2 h, 10 μM: Papp B-A/Papp A-B
# Experimental: Determining the permeability through a monolayer of Caco-2 cells makes it possible to assess the ability of the substances to penetrate biological membranes by means of both active and passive transport.
# The intestinal epithelial cells (Caco-2) were cultured using filter inserts ([…], BD Falcon with High Density) for 21 days, after which the monolayer integrity was checked using a Lucifer Yellow dye (Sigma-Aldrich, USA) according to the standard protocol. When setting up an A→B transfer (“intestinal lumen”—“blood flow” transfer), solutions of the tested substances were introduced in pH 6.5 buffer (HBSS, 10 mM HEPES, 15 mM glucose solution) at a concentration of 10 μM into the upper chamber, while the lower chamber was filled with pH 7.4 buffer (HBSS, 10 mM HEPES, 15 mM Glucose solution, 1% BSA). When setting up a B→A transfer (“blood flow”—“intestinal lumen” transfer), the upper chamber was filled with pH 6.5 buffer, and the solutions of the tested substances were introduced in pH 7.4 buffer at a concentration of 10 μM into the lower chamber. Propranolol, which is a high permeability substance, was used as a control.
# After incubation for 2 h at 37° C. in an atmosphere containing 5% CO2, the amounts of the tested substances in the upper and lower chambers were determined by the HPLC method using an Agilent1200 chromatograph (Agilent, USA) with preliminary precipitation of proteins with acetonitrile. Chromatographic analysis was performed using a gradient elution mode at a flow rate of 1 ml/min. Peak areas corresponding to the compounds were determined on chromatograms. Based on the peak area values of the compound in calibration standards, compound concentrations in the initial solution and in the samples taken from the wells of the upper and lower chambers were determined.
# Permeability through a layer of cells (Papp) was calculated based on the formula:
# Papp=(C(t)*V)/(C(θ)*t*Area), where
# Papp is the effective permeability constant, m/s V is the solution volume (0.8 ml in the A→B test, and 0.2 ml in the B→A test), ml Area is the surface area of the membrane (0.33 cm^2), cm^2 t is the incubation time (7,200 s), s C(θ) is the concentration of the initial solution, μM C(t) is the concentration of the solution after 2 hours (in the sample from the lower chamber well (test A→B), and in the sample from the upper chamber well (test B→A)), μM.
# The value was calculated using the following formula:
# efflux=Papp B-A/Papp A-B, where
# Papp A-B is the permeability value during direct assay (A→B); Papp B-A is the permeability value during reverse assay (B→A);
# [2] = Enzymatic stability in human liver S9 fractions; assay type: in vitro ADME; details: pooled human liver S9 fraction; 0.5 mg/ml human liver S9, 10 μm compound, 37° C., pH 7.4
# Experimental: Determining enzymatic stability of the candidates made it possible to evaluate the resistance of the compounds of the present invention to the exposure to biotransformation enzymes.
# The enzymatic decomposition rate of the compounds was determined by incubation in a solid-state thermostat at 37° C. of a reaction mixture containing 0.5 mg/ml of pooled S9 fractions of the human liver (XenoTech, USA, cat. # H0610), 10 μm compounds, 2 mM β-nicotinamide adenine dinucleotide (Carbosynth, UK, cat. # NN 10871), and 4 mM magnesium chloride in 0.1 M sodium phosphate buffer (pH=7.4). The reaction was stopped with acetonitrile based on 100 μl of acetonitrile per 100 μl of the reaction mixture. After stopping the reaction, the samples were centrifuged for 10 minutes at 10,000 rpm. The supernatant was analyzed by chromatography using an Agilent1200 chromatograph (Agilent, USA). Chromatographic analysis was performed in a gradient elution mode at a flow rate of 1 ml/min. A logarithm of the peak area of the substance was plotted versus time. The dependent coefficient of this line corresponded to the elimination rate constant (k), which was used to calculate the half-life of the drug (t1/2) and decomposition rate (CLint): […]
# [3] = General cytotoxicity test on HepG2 cells; assay type: cell-based; details: human, 72 hours incubation, 200 to 0.78 μM, average of several runs, read-out: Hep-G2 CC50
# Experimental: The CC50 value was determined in a cytotoxicity test. The experiments were performed using HepG2 cells (hepatocellular carcinoma, ATCC© HB-8065™). The cells were seeded into 96-well plates (Corning, #3599) at a concentration of ˜20×10^3 cells per 100 μl of medium per well, and incubated for 72 hours with the introduced compounds in the concentration range from 200 to 0.78 μM. Cell viability was evaluated according to the method described above.
# [4] = Chemical stability in human blood plasma; assay type: in vitro ADME; details: pooled human blood plasma, 10 μM, 4 hours at 37° C., amount of substance remaining
# Experimental: Chemical stability of the compounds described herein was determined in human blood plasma.
# The determination of stability in human blood plasma was performed using a pooled human blood plasma taken from ten healthy donors. The initial solution of the candidate (10 mM in DMSO) was diluted with the pooled blood plasma to a concentration of 10 μM (test solution). The test solution was incubated in a solid-state thermostat for 4 hours at 37° C. The HPLC method and Agilent1200 chromatograph (Agilent, USA) were used to determine the peak areas of the compounds in the test samples corresponding to the initial test time (before incubation) and the final test time (after incubation in a solid-state thermostat for 4 hours at 37° C.) with preliminary precipitation of proteins using acetonitrile. Chromatographic analysis was performed using a gradient elution mode at a flow rate of 1 ml/min. The amount of substance in the sample expressed in % was determined after the thermostat treatment.
# MV4-11 cell line = experiment: Antiproliferative activity on MV4-11 cell line (AlamarBlue); assay type: cell-based; details: Homo sapiens, 120 h incubation, average of several runs, read-out: MV-4-11 IC50
# Experimental: The antiproliferative activity of the CDK8 inhibitors according to the present invention was measured in a cell test on a finite MV4-11 cell line (biphenotypic myelomonocytic leukemia, ATCC© CRL-9591™) using an intravital AlamarBlue dye (ThermoFisher, #DAL1100). The cells were grown on an RPMI-1640 medium (PanEco, #C330p) supplemented with 10% FBS (Gibco, #16140-071), then washed and re-seeded on a culture medium with 10% FBS (Gibco, #16140-071) in 96-well culture plates (Corning, #3599) in the amount of ˜10×10^3 cells per 100 μl of medium per well. The tested compounds were dissolved in DMSO and diluted with 10% FBS (Gibco, #16140-071) to a final concentration ranging from 0 to 100 μM. […] At the end of the incubation period, 15 μl of AlamarBlue reagent (ThermoFisher, #DAL1100) were added to the wells. The contents of the plates were mixed using an orbital shaker (Biosan, Latvia), and incubated further from 3 to 5 hours at 37° C. in an incubator with 5% C02. The number of living cells was detected using a microplate spectrophotometer (Tecan Infinite M200Pro, Switzerland) by measuring a fluorescence signal at an excitation wavelength (λEx) of 540 nm and emission wavelength (λEm) of 590 nm.
# The IC50 value was determined using the Magellan 7.2 program (Tesap, Switzerland) by approximating the experimental points using a four-parameter model with the Levenberg-Marquardt optimization (Table 10).
Compound,IC50 (CDK8/CyclinC) [nM],"Stability in blood plasma, % [4] [%]",IC50 (MV4-11 cell line) [nM],"Stability in blood plasma, % ([4]; dihydrochloride) [%]","Papp A→B at 2 h, 10 μM [1] [×10⁻⁶ cm/s]","efflux ratio at 2 h, 10 μM [1]",microsomal CLint at 10 μM [2] [µL/min/mg],CC50 at 72 h [3] [nM]
"CN1CCN(C(=O)c2ccc3cc(CCNc4cnnc5ccc(C#N)cc45)ccc3c2)CC1 [Compound 4, 4-((2-(6-(4-methylpiperazine-1-carbonyl)naphth-2-yl)ethyl)amino) cinnoline-6-carbonitryl]",404,–,–,–,–,–,–,–
"CN1CCN(C(=O)c2ccc3cc(CCNc4ccnc5ccc(C#N)cc45)ccc3c2)CC1 [Compound 5, 4-((2-(6-(4-methylpiperazine-1-carbonyl)naphth-2-yl)ethyl)amino) quinoline-6-carbonitryl]",6.07,100,125,–,7.1,2,7.2,> 60000
CC(C)N1CCN(C(=O)c2ccc3cc(CCNc4ccnc5ccc(C#N)cc45)ccc3c2)CC1 [Compound 7],5.77,–,91,–,–,–,–,8900
"CN1CCN(C(=O)c2ccc3cc(CCOc4ccnc5ccc(C#N)cc45)ccc3c2)CC1 [Compound 8, 4-(2-(6-(4-methylpiperazine-1-carbonyl)naphth-2-yl)ethoxy) quinoline-6-carbonitryl]",58.2,–,602,–,–,–,–,11200
"CN1CCN(C(=O)c2ccc3cc(CCNc4c(Cl)cnc5ccc(C#N)cc45)ccc3c2)CC1 [Compound 9, 3-chloro-4-((2-(6-(4-methylpiperazine-1-carbonyl)naphth-2-yl)ethyl)amino) quinoline-6-carbonitryl]",20.5,91.1,106,–,–,–,–,47300
"N#Cc1ccc2nccc(NCCc3ccc4cc(C(=O)N5CCNCC5)ccc4c3)c2c1 [Compound 18, 4-((2-(6-(piperazine-1-carbonyl)naphth-2-yl)ethyl)amino)quinoline-6-carbonitryl]",–,100,19,–,22.4,0.3,4.4,11600

# Further lines, with some results ahead:
IC50 (CDK8/CyclinC) [nM],"Stability in blood plasma, % [4] [%]",IC50 (MV4-11 cell line) [nM],"Stability in blood plasma, % ([4]; dihydrochloride) [%]",Compound,"Papp A→B at 2 h, 10 μM [1] [×10⁻⁶ cm/s]","efflux ratio at 2 h, 10 μM [1]",microsomal CLint at 10 μM [2] [µL/min/mg],CC50 at 72 h [3] [nM]
–,–,–,87.9,"CN1CCN(C(=O)c2ccc3cc(CCNc4c(Cl)cnc5ccc(C#N)cc45)ccc3c2)CC1 [Compound 9a, 3-chloro-4-((2-(6-(4-methylpiperazine-1-carbonyl)naphth-2-yl)ethyl)amino) quinoline-6-carbonitryl dihydrochloride]",–,–,–,–
655,–,3300,–,"CN1CCN(C(=O)c2ccc3cc(CCNc4ccnc5ncc(C#N)cc45)ccc3c2)CC1 [Compound 11, 5-((2-(6-(4-methylpiperazine-1-carbonyl)naphth-2-yl)ethyl)amino)-1,8-naphthyridin-3-carbonitryl]",–,–,–,85100
6.54,–,79,–,CCN1CCN(C(=O)c2ccc3cc(CCNc4ccnc5ccc(C#N)cc45)ccc3c2)CC1 [Compound 12],–,–,–,10600
4.04,–,57,–,N#Cc1ccc2nccc(NCCc3ccc4cc(C(=O)N5CCOCC5)ccc4c3)c2c1 [Compound 13],–,–,–,~15000
28.5,–,113,–,"N#Cc1ccc2nccc(NCCc3ccc4cc(C(=O)N5CCN(CC(F)(F)F)CC5)ccc4c3)c2c1 [Compound 17, 4-((2-(6-(4-(2,2,2-trifluoroethyl)piperazine-4-carbonyl)naphth-2-yl)ethyl)amino)quinoline-6-carbonitryl]",–,–,–,17900
118,–,2610,–,"CN1CCN(C(=O)c2ccc3cc(CCSc4ccnc5ccc(C#N)cc45)ccc3c2)CC1 [Compound 19, 4-((2-(6-(4-methylpiperazine-1-carbonyl)naphth-2-yl)ethyl)thio) quinoline-6-carbonitryl]",–,–,–,> 200000
